Laboratory results taken from a melting point compilation (Tetko et al.; mined from patent text by program, amines drawn as free bases though some values may be those of a salt).

COc1cccc(NC(=O)OC2CN3CCC2CC3)c1 (stereo not drawn) gave a melting point of 130 to 132 °C. For O=C1C(=O)c2ccccc2C2=C1SCC1(CCN(CC(O)COCc3ccco3)CC1)O2 (stereo not drawn), the melting point was 143 to 145 °C. Work on Cc1cc(I)ccc1Nc1c(C2=NC(C)(C)CO2)ccc(F)c1F yielded a melting point of 104 °C. Compound C[C@H](CSC(=O)C(C)(C)C)C(=O)N(CC(=O)O)C1CCCC1 has a melting point of 155 to 156 °C. For COc1cccc(CC(=O)O)c1OCCCc1cn(-c2ccc(C#N)cn2)nc1C(C)C, the melting point was 144 to 145 °C. With O=C1c2ccccc2C(=O)N1CC(=O)N(CC(=O)N1CCc2ccccc21)c1ccccc1 the melting point was 230 °C. For CSc1ncc(F)c(NCc2ccccc2F)n1, the melting point was 144 to 146 °C. Work on OCc1cn2c(n1)CN=C(c1ccccc1Cl)c1cc(Cl)ccc1-2 yielded a melting point of 174 to 175 °C. COc1cc(Nc2nccc(Sc3ccccc3)n2)cc(OC)c1OC gave a melting point of 110 °C. Work on O=C1c2cccc3c2N(C(=O)C2CCCN12)C(c1ccccc1)O3 (stereo not drawn) yielded a melting point of 160 to 163 °C. With Cc1cc(N2CCC(N3CCCC3C)C2)ccc1C(=O)NC1CCOCC1 (stereo not drawn) the melting point was 147 °C. Work on OC1Cc2cc(F)c(F)cc2C1 yielded a melting point of 57 to 58 °C. Work on C#CCNC1(c2ccccc2)c2ccccc2Oc2ccccc21 yielded a melting point of 116 to 118 °C. Compound CCc1cc(F)cc2c1OCC(C)(C)CC2(O)c1ccccn1 (stereo not drawn) has a melting point of 100 °C. In the case of O=C1Nc2cc(Cl)ccc2C(=O)C1c1cccs1 (stereo not drawn), the melting point is reported as 305 to 307 °C. Compound CCC(=O)OCc1nc(-c2ccc(OC)c(OC)c2)c2cc(OC)c(OC)cc2c1CC has a melting point of 125 to 127 °C. For CN1CC(OCC=C(Cl)Cl)(C(F)(F)F)c2cc(Cl)ccc2NC1=O (stereo not drawn), the melting point was 149 to 150 °C. In the case of COc1cccc(-c2cc(F)c3c(c2)CC(CN)O3)c1 (stereo not drawn), the melting point is reported as over 250 °C. For CC(C)(C)OC(=O)[C@H](Cc1ccc(O)cc1)NC(=O)c1c(F)cccc1F, the melting point was 145 to 148 °C. Work on COc1ccc(OCCc2ccccc2)c(CC(=O)O)c1 yielded a melting point of 56.5 to 57.5 °C. COc1ccc(CC(O)c2cc(OC)cc(OC)c2)cc1 (stereo not drawn) gave a melting point of 101 to 102 °C. Work on COc1cc(OC)cc(-c2nc[nH]c2-c2ccc(OC)c(O)c2F)c1 yielded a melting point of 126 to 128 °C. Compound Cc1ncsc1C(O)c1cccc(N(C)C)c1 (stereo not drawn) has a melting point of 135 to 138 °C. With CCOc1c(CN2CCCCC2)c2c(c3c1OC(C)(C)C3)C(c1cccc(N(S(C)(=O)=O)S(C)(=O)=O)c1)=NC(C)(C)C2 the melting point was 118 to 119 °C. With CCOC(=O)c1cccc(NC(=O)c2ccc(OC)c(N)c2)c1 the melting point was 144 to 146 °C. COC(=O)C(=Cc1c[nH]c2cc(C)ccc12)NC(C)=O showed a melting point of 182 to 183 °C. CCCC(=O)Nc1cccc(-c2cccc(OC)c2)c1 showed a melting point of 90 to 91 °C. CC(C)C1C(=O)C(c2ccc(S(C)(=O)=O)cc2)=C1c1ccccc1 (stereo not drawn) showed a melting point of 98 °C. Cc1cc(C#N)cc(C(=O)Nc2nc(C)cs2)n1 gave a melting point of 211 °C. Work on Cc1cncn1-c1cc(C(=O)O)cc(C(F)(F)F)c1 yielded a melting point of 243 to 245 °C. Work on COc1csc2ccc(C(=O)O)c(Cl)c12 yielded a melting point of 185 to 192 °C. Work on CCOc1cc(Cc2ccc(Cl)cc2Cl)nc(-c2ccc3c(n2)CCCC3)n1 yielded a melting point of 98 to 100 °C. Compound c1ccc(N2CCN(CCCc3cccnc3)CC2)nc1 has a melting point of 51 to 52 °C. For CCNC(=O)N1CCC(c2cc(F)ccc2F)(S(=O)(=O)c2ccc(Cl)cc2)CC1, the melting point was 172 to 174 °C. In the case of COC(=O)C1=CC(C(=O)c2cc(C)ccc2O)=CN2CCc3c([nH]c4ccccc34)C12C(=O)OC (stereo not drawn), the melting point is reported as 197 °C. Work on N#CCc1ccc(NC(=O)c2ccc(C=O)cc2)cc1 yielded a melting point of 194 °C. With CCCOc1ccccc1-c1nc2cc3ncn(Cc4ccccc4)c3cc2c(=O)[nH]1 the melting point was 218 to 219 °C. C[C@@H](n1ccn(-c2ccc(OCC(F)(F)C(F)F)cc2)c1=O)[C@](O)(CO)c1ccccc1F gave a melting point of 166 to 167 °C. Compound NC(=O)N1CC(Oc2cccc(C(F)(F)F)c2)C1 has a melting point of 151 to 152 °C. COc1ccc(Br)c(COc2cccc3cc(OC)ccc23)c1 showed a melting point of 83 to 84 °C. Cc1nnc2n1-c1ccc(C#C[Si](C)(C)C)cc1C(c1ccccc1F)=NC2 gave a melting point of 218 to 219 °C. Work on COc1ccccc1N1CCN(c2cc3ccccc3cn2)CC1 yielded a melting point of 112 to 114 °C. With CC(C)(C)CCc1nn(-c2ccc(F)cc2F)c2c1C1CCC2C1 (stereo not drawn) the melting point was 54 to 57 °C. In the case of CN1C(=O)Nc2ccc(Cl)cc2C12NC(=O)NC2=O (stereo not drawn), the melting point is reported as over 280 °C. For Cc1noc(C)c1C(=O)Nc1ccc(-n2nc(C(F)(F)F)cc2C(F)(F)F)c(Cl)c1, the melting point was 64 to 65 °C. In the case of CCCCC1NC(C(=O)OC)Cc2c1[nH]c1ccccc21 (stereo not drawn), the melting point is reported as 102 to 103 °C. O=C(CN1CCCC1=O)NCC(=O)Nc1ccncc1 showed a melting point of 243 to 245 °C. CCCCCCn1c(C)cc(C)c(C(=O)O)c1=O showed a melting point of 79 to 82.5 °C. Cc1cc(-n2ccnc2)c2cccc(OCc3c(Cl)ccc(S(=O)(=O)N4CCC[C@H]4C(=O)NCCO)c3Cl)c2n1 showed a melting point of 140 °C. CN1C(=O)NC(=O)C1=Cc1cc(Br)c(O)c(Br)c1 showed a melting point of 271 to 277 °C. For O=C(O)c1ccc(/C=C/C(=O)c2ccc(-c3cccs3)cc2)cc1, the melting point was 260 to 265 °C. Work on C[C@@H](n1ncn(-c2ccc(O)cc2)c1=O)[C@](O)(Cn1cncn1)c1ccc(F)cc1F yielded a melting point of 242 °C. CCOC(=O)c1ccc(NC(=O)N(CCc2ccccc2)c2ccc3c(c2)C(C)(C)CCC3(C)C)cc1 gave a melting point of 223 to 225 °C. Work on O=C(O)CCc1[nH]nc2c1CCCCC2 yielded a melting point of 102 to 105 °C. Cn1cc(CS(C)(=O)=O)c(=O)c2cc(F)ccc21 gave a melting point of 200 to 205 °C. Cc1cccc(C)c1NC(=O)c1ccc([N+](=O)[O-])cc1 gave a melting point of 212 to 215 °C. c1cc(CN2CCCCC2)cc(OCCCNc2nnc3ccccn23)c1 gave a melting point of 150 to 151 °C. For Nc1ccc(NC(=O)OCc2ccccc2)c(O)c1, the melting point was 148 °C. In the case of NS(=O)(=O)c1ccc(-n2nc(C(F)(F)F)cc2-c2ccc(-c3ccco3)cc2)c(F)c1, the melting point is reported as 174 °C. For CC(C)c1nc(N(C)S(C)(=O)=O)nc(-c2ccc(F)cc2)c1/C=C/C=O, the melting point was 86.5 °C. O=S(=O)(Nc1cccc2cc(-c3ncns3)[nH]c12)c1cccs1 showed a melting point of 232 to 233 °C. For O=C(CC1CCN(CCc2ccccc2)CC1)c1ccc(F)cc1, the melting point was 73 to 74 °C. COC(=O)c1ccc(CN2CCOc3cc4c(cc32)C(C)(C)CCC4(C)C)cc1 gave a melting point of 187 °C. CNC(=O)C1=CC(CF)(CF)Oc2ccc(Cl)cc21 gave a melting point of 175 to 176 °C. In the case of Cc1cc(C(=O)N(C)CCO)ncc1C(c1cc(F)ccc1F)S(=O)(=O)c1ccc(F)cc1 (stereo not drawn), the melting point is reported as 123 to 125 °C. Work on O=C(NCCCCCCOC(=O)Oc1ccc([N+](=O)[O-])cc1)Oc1ccc(Oc2ccccc2)cc1 yielded a melting point of 102 to 104 °C. With O=C(NCc1ccc2cc(O)ccc2c1)c1cc2ccccc2o1 the melting point was 200 to 202 °C. COC(=O)COc1ccc(NC(=O)/C=C/c2ccc(C#N)cc2)cc1 gave a melting point of 197 °C. Work on CCOC(=O)C1=C(C(=O)OCC)SCCS1 yielded a melting point of 32 to 36 °C. In the case of CCOC(=O)/C=C/c1cn(Cc2ccccc2)nc1OCc1ccccc1, the melting point is reported as 88 to 89 °C. In the case of CC(=O)OC1CSC(Oc2ccnc(-c3ccc(F)cc3C)c2)C(OC(C)=O)C1OC(C)=O (stereo not drawn), the melting point is reported as 137 °C. For CN(C)c1ccc(I)nn1, the melting point was 135 °C. O=C(NCCCl)NCC1(Cc2ccccc2)CC(=O)C(OCc2ccccc2)=CN1 (stereo not drawn) gave a melting point of 130 °C.
